Data from US9193673B2, “Derivatives of mesalazine, process of their preparation and their use in the treatment of intestinal inflammatory diseases” (SOFAR SPA, priority 2010, dated 2015).

Columns and labels:
[1] = Stability in rat plasma (hydrolysis by plasma esterases); assay type: in vitro ADME
Description: Such study is conducted with the aim of evaluating possible hydrolysis of the compound (IV) by the plasma esterases. The percentage of hydrolysis of the compound (IV) is compared to that of known reference standards.

DSS-induced colitis = DSS-induced colitis model; assay type: in vivo; settings: DSS 3% C57BL/6 mice
Excerpt: Experimental colitis models, such as the dextran sodium sulphate (DSS) model, are routinely available in our laboratory (1, 2). […] DSS-induced inflammation of the colon originates in the distal colon, progressing to involve the whole colon and in severe cases the caecum. In addition, the inflammation is confined to the mucosa and is generally not transmural. Furthermore, DSS-induced inflammation is not dependent on the presence of any specific intestinal bacterial flora.
Colon inflammation has been induced in C57BL/6 mice by the administration of DSS in the drinking water at concentrations of 3%, for 5 days.
Different parameters have been measured to test the efficacy of the selected compounds which are: • Clinical evaluation: daily recording weight and clinical activity (anal bleeding, presence of diarrhoea). This parameter has been quantified as percentage of body weight and DAI (Disease Activity Index) relating to anal bleeding and presence of diarrhoea. The lower the DAI is, the lower the anal bleeding is, thus better the therapeutic effect is. • Endoscopic evaluation: mice underwent endoscopy at the end of the treatment. This step is very important as most of the drugs used in human inflammatory bowel disease aim to achieve mucosal healing. • Histological colitis assessment: mice have been sacrificed at the end of the treatment, colons have been removed and histopathological analysis has been performed to assess the extent of tissue damage and recruitment of immune cells.
The therapeutic effect has been evaluated with different experimental procedures (a)-c)) representing either the active phase (a)) or the remission phase (b)-c)) of an intestinal inflammatory disease at different doses: • a) treatment of acute phase at 200 mg/kg/day • b) treatment of remission phase at 50 mg/kg/day • c) treatment of remission phase at 100 mg/kg/day […]

Caco2 cellular line = assay: Permeability on the Caco2 cellular line; assay type: in vitro ADME
Description: (§1) Such study is conducted with the aim of evaluating the capacity of the molecule to permeate the intestinal epithelium and be absorbed thereby evaluating the Papp (apparent permeability coefficient). The Papp of the compound (IV) is compared to that of the known reference standards.

[2] = Permeability on the Caco2 cellular line; assay type: in vitro ADME; settings: human, Caco-2, Caco2
Description: as §1

% Residue at 60 min ([1]; Rat plasma, 60 min): 8.5 ± 2.0%
Hydrolysis in plasma ([1]; murine plasma): high hydrolysis percentage
% hydrolysed ([1]; murine plasma, after 1 hour of incubation): 91.5%
A→B Mean mass balance % (Caco2 cellular line; A→B, Caco2): 69%
B→A Mean mass balance % (Caco2 cellular line; B→A, Caco2): 99%
BA/AB ratio (Caco2 cellular line; Caco2): 0.41
Permeability (Caco2 cellular line; Caco2): poor permeability
BA/AB ratio (Caco2 cellular line; Caco2, listed as compound (IV)): < 1
Substrate of P-gp (glycoprotein P) (Caco2 cellular line; from BA/AB ratio, Caco2): does not seem to be a substrate of P-gp
Permeability class (Caco2 cellular line; through the basolateral membrane of the Caco2 cell line): low
Papp A→B ([2]; Apical (pH 6.5) → Basolateral (pH 7.4), read-out: Papp A→B (nm/sec) Mean ± SD): 0.59 ± 0.12 ×10⁻⁶ cm/s
Papp B→A ([2]; B→A, read-out: Papp B→A (nm/sec) Mean ± SD): 0.24 ± 0.03 ×10⁻⁶ cm/s
Compound: CCCC(=O)Oc1ccc(N)cc1C(=O)O.Cl [Compound (IV), 5-amino-2-(butyryloxy)benzoic acid]
Therapeutic efficiency (DAI, endoscopic and histological scores) (DSS-induced colitis; a) acute (active) phase, 200 mg/kg/day orally): comparable therapeutic efficiency
Therapeutic activity (DAI, endoscopic and histological scores) vs 5-ASA, butyric acid, and their combined administration (DSS-induced colitis; b) remission phase, 50 mg/kg/day orally): better therapeutic activity
Therapeutic activity (DAI, endoscopic and histological scores) vs 5-ASA, butyric acid, and their combined administration (DSS-induced colitis; c) remission phase, 100 mg/kg/day orally): better therapeutic activity
